Series [1] relates to Vesicular stomatitis Indiana virus. Put plainly: Antiviral activity against vesicular stomatitis virus Indiana infected in pig PEK cells assessed as inhibition of virus replication after 48 hrs by MTT assay. In kind it is functional, organism-based.
Series [2] can be described thus: Therapeutic index, ratio of IC50 for pig PEK cells to EC50 for vesicular stomatitis virus Indiana infected in pig PEK cells. In kind it is cell-based. To be noted: read-out: Ratio IC50/EC50.
Series [3] in a line: Cytotoxicity against human MS cells after 72 hrs ny MTT assay. In kind it is cell-based.
A further series has as its system A549. Put plainly: Cytotoxicity against human A549 cells after 72 hrs ny MTT assay. The class given is cell-based. To be noted: A549, 72 h.
Series [4] in a line: Cytotoxicity against human TE-32 cells after 72 hrs ny MTT assay. In kind it is cell-based. The settings on record: RD.
Series [5] in a line: Cytotoxicity against pig PEK cells after 48 hrs by MTT assay. In kind it is cell-based, Sus scrofa.
Series [6] in a line: Induction of apoptosis in human RD cells assessed as viable cells at 4.5 uM after 6 hrs by annexinV-FITC/propidium iodide staining-based flow cytometry (reference value: 96.85%). In kind it is cell-based. To be noted: read-out: Activity.
The subject of series [7] is RD. Put plainly: Induction of apoptosis in human RD cells assessed as late apoptotic/necrotic cells at 4.5 uM after 6 hrs by annexinV-FITC/propidium iodide staining-based flow cytometry (reference value: 1.20%). The class given is cell-based.
The test system of series [8] is RD. Put plainly: Induction of apoptosis in human RD cells assessed as damaged cells at 4.5 uM after 6 hrs by annexinV-FITC/propidium iodide staining-based flow cytometry (reference value: 0.84%). In kind it is cell-based.
The subject of series [9] is RD. The series is described as follows: Induction of apoptosis in human RD cells assessed as early apoptotic cells at 4.5 uM after 6 hrs by annexinV-FITC/propidium iodide staining-based flow cytometry (reference value: 1.21%). The class given is cell-based.
A short description of series [10]: Induction of apoptosis in human RD cells assessed as viable cells at 10.9 uM after 6 hrs by annexinV-FITC/propidium iodide staining-based flow cytometry (reference value: 96.85%). In kind it is cell-based. The settings on record: read-out: Activity.
The subject of series [11] is RD. Put plainly: Induction of apoptosis in human RD cells assessed as early apoptotic cells at 10.9 uM after 6 hrs by annexinV-FITC/propidium iodide staining-based flow cytometry (reference value: 1.21%). In kind it is cell-based.
Series [12] deals with RD. The series is described as follows: Induction of apoptosis in human RD cells assessed as late apoptotic/necrotic cells at 10.9 uM after 6 hrs by annexinV-FITC/propidium iodide staining-based flow cytometry (reference value: 1.20%). In kind it is cell-based.
Series [13] deals with RD. The series is described as follows: Induction of apoptosis in human RD cells at 10.9 uM after 6 hrs by annexinV-FITC/propidium iodide staining-based flow cytometry relative to control. In kind it is cell-based.
The subject of series [14] is RD. The series is described as follows: Induction of apoptosis in human RD cells assessed as damaged cells at 10.9 uM after 6 hrs by annexinV-FITC/propidium iodide staining-based flow cytometry (reference value: 0.84%). The class given is cell-based.
Where [15] appears, read: Vesicular stomatitis Indiana virus, PEK, 48 h, read-out: EC50.

For `C=C(C)[C@@H]1CC[C@]2(C(=O)NCCC(=O)OCC)CC[C@]3(C)[C@H](CC[C@@H]4[C@@](C)(CC#N)[C@H](C(C)(C)/C=N/NC(C)=O)CC[C@]43C)[C@@H]12`, the EC50 result in series [1] (pek) is given as “Not Active”.
For the compound `C=C(C)[C@@H]1CC[C@]2(C(=O)OC)CC[C@]3(C)[C@H](CC[C@@H]4[C@@](C)(CC#N)[C@H](C(C)(C)/C=N/NC(C)=O)CC[C@]43C)[C@@H]12`, in [1] (setting [15]), the EC50 is 1.58 µM. The selectivity ratio in series [2] was 37.
With `COC(=O)[C@@]1(C)CC[C@]2(C)CC[C@]3(C)C(=CC(=O)[C@@H]4[C@@](C)(CC#N)[C@H](C(C)(C)[C@H]5OC(C)=NN5C(C)=O)CC[C@]43C)[C@@H]2C1`, the results for the IC50 (in [3]; in the series with A549; in series [4]) were 88.7 µM, 133 µM and 166 µM, respectively.
Take `CC(=O)N(/N=C/C(C)(C)[C@@H]1CC[C@]2(C)[C@H](CC[C@@H]3[C@H]4[C@H]5OC[C@@]4(CCC5(C)C)CC[C@]32C)[C@@]1(C)CC#N)C(C)=O`: in series [1] (setting [15]), the EC50 was 15.9 µM. Moreover, in series [2], the selectivity ratio came out at 8.
In the case of `C=C(C)[C@@H]1CC[C@]2(C(=O)OC)CC[C@]3(C)[C@H](CC[C@@H]4[C@@](C)(CC#N)[C@H](C(C)(C)[C@@H]5OC(C)=NN5C(C)=O)CC[C@]43C)[C@@H]12`, the Activity result in series [5] is “Toxic”. Moreover, the EC50 in [1] (setting [15]) worked out at 0.34 µM. Moreover, the selectivity ratio in series [2] was found to be 5. The IC50 in series [3] is 110 µM; in the series on A549, 133 µM; in series [4], over 200 µM.
For the compound `CC[C@@]1(O)C(=O)OCc2c1cc1n(c2=O)Cc2cc3ccccc3nc2-1` [CAMPTOTHECIN], the viability at 6 h, 4.5 µM in series [6] came out at 92.2%. The IC50 in series [3] was determined as 0.23 µM; in the series with A549, 37.1 µM; in series [4] it was 4.47 µM. The figures for the Activity in the series on RD [7], in the series on RD [8] and with RD [9] were 3.1%, 0.67% and 4.08%, respectively.
With `CC(=O)N1N=C(C)O[C@H]1C(C)(C)[C@@H]1CC[C@]2(C)[C@H](CC[C@@H]3[C@H]4[C@H]5OC[C@@]4(CCC5(C)C)CC[C@]32C)[C@@]1(C)CC#N`, in series [1] (pek), the EC50 result is on record as “Not Active”. For the same compound, the IC50 worked out at 40.3 µM in [3], 95.5 µM with A549 and 85 µM in series [4].
`C=C(C)[C@@H]1CC[C@]2(C(=O)OC)CC[C@]3(C)[C@H](CC[C@@H]4[C@@](C)(CC#N)[C@H](C(C)(C)/C=N/N(C(C)=O)C(C)=O)CC[C@]43C)[C@@H]12`: in series [1] (pek), the EC50 entry is on record as “Not Active”. Also, the selectivity ratio in series [2] stood at 2.
Take `C=C(C)[C@@H]1CC[C@]2(C(=O)OC)CC[C@]3(C)[C@H](CC[C@@H]4[C@@](C)(CC#N)[C@H](C(C)(C)[C@H]5OC(C)=NN5C(C)=O)CC[C@]43C)[C@@H]12`: in series [10], the viability at 6 h, 10.9 µM is 92.5%. Also, the Activity in the series on RD [11] is 3.83%; in [5] it was “Toxic”; in the series on RD [12], 2.21%; in the series on RD [14] it was 1.51%. Besides, the EC50 in series [1] (setting [15]) was 0.62 µM. The “fold change (FC)” value in the series on RD [13] is given as 3. For the same compound, in series [2], the selectivity ratio worked out at 3. For the same compound, the IC50 was 5.84 µM in series [3], 18.6 µM in the series with A549 and 10.9 µM in series [4].
Consider `C=C(C)[C@@H]1CC[C@]2(C(=O)NC(C)C)CC[C@]3(C)[C@H](CC[C@@H]4[C@@](C)(CC#N)[C@H](C(C)(C)/C=N/NC(C)=O)CC[C@]43C)[C@@H]12`, for which the EC50 result in series [1] (pek) is given as “Not Active”.
With `C=C(C)[C@@H]1CC[C@]2(C(=O)O)CC[C@]3(C)[C@H](CC[C@@H]4[C@@]5(C)CC[C@H](O)C(C)(C)[C@@H]5CC[C@]43C)[C@@H]12` [BETULINIC ACID], the 50% effective concentration (EC50) in series [1] (setting [15]) was determined as 160 µM. For the same compound, the selectivity ratio in [2] came out at 0.07. The IC50 in series [3] was found to be 16 µM; in the series on A549, 44 µM; in [4], 23.9 µM.
As for `CC(=O)N/N=C/C(C)(C)[C@@H]1CC[C@]2(C)[C@H](CC[C@@H]3[C@H]4[C@H]5OC[C@@]4(CCC5(C)C)CC[C@]32C)[C@@]1(C)CC#N`, the half-maximal effective concentration (EC50) in series [1] (setting [15]) came out at 0.41 µM. For the same compound, the selectivity ratio in series [2] turned out to be 149.
Take `COC(=O)[C@@]1(C)CC[C@]2(C)CC[C@]3(C)C(=CC(=O)[C@@H]4[C@@](C)(CC#N)[C@H](C(C)(C)[C@@H]5OC(C)=NN5C(C)=O)CC[C@]43C)[C@@H]2C1`: the values for the IC50 (in series [3]; with A549; in [4]) were 71.2 µM, over 200 µM and over 200 µM, respectively.
Regarding `CC(=O)N1N=C(C)O[C@@H]1C(C)(C)[C@@H]1CC[C@]2(C)[C@H](CC[C@@H]3[C@H]4[C@H]5OC[C@@]4(CCC5(C)C)CC[C@]32C)[C@@]1(C)CC#N`, the EC50 result in series [1] (pek) was “Not Active”. The IC50 in [3] came to 11.5 µM; in the series with A549 it was 147 µM; in series [4], 82.2 µM.
On to `COC(=O)[C@@]1(C)CC[C@]2(C)CC[C@]3(C)C(=CC(=O)[C@@H]4[C@@](C)(CC#N)[C@H](C(C)(C)/C=N/NC(C)=O)CC[C@]43C)[C@@H]2C1`, for which the EC50 in series [1] (setting [15]) was determined as 18.4 µM. Also, the selectivity ratio in series [2] turned out to be 2.
